Assay results from US20250025523A1, “COMPOSITION FOR PREVENTING OR TREATING MUSCLE DISEASE COMPRISING SARGASSUM SERRATIFOLIUM EXTRACT” (PUKYONG NATIONAL UNIVERSITY INDUSTRY- UNIVERSITY …, priority 2021, published 2025).

Test: Body weight change in dexamethasone muscle atrophy mouse model
Assay type: in vivo, C57BL/6 mice
Conditions: DEX group: dexamethasone 10 mg/kg/day i.p. 4 weeks, olive oil orally; at sacrifice
Description: Specifically, three-week-old male C57BL/6 mice were provided with free access to water and food and were acclimated under conditions of 23±2° C., relative humidity of 50±5%, and a 12-hour light/dark cycle. […] In the untreated group, an equivalent volume of saline was administered intraperitoneally. Body weight and food intake were evaluated daily. The experiment was conducted with the approval of the Pukyong National University Animal Care and Use Committee, in accordance with Pukyong National University's animal experiment ethics regulations.

C[C@@H]1C[C@H]2[C@@H]3CCC4=CC(=O)C=C[C@]4(C)[C@@]3(F)[C@@H](O)C[C@]2(C)[C@@]1(O)C(=O)CO [DEX, dexamethasone]
Body weight (g) Sacrifice [B]: 27.9 ± 3.25 g
